Tests used:
Type in all cases: in vitro ADME, human
HepaRG cells [1] = assay: Metabolite identification by LC‐MS/MS in HepaRG cell culture; settings: 50 µmol/L, 7.5 and 60 minutes
Experimental: (§1) Differentiated HepaRG cells, plated in 24 well plates, were washed with hepatocyte suspension medium (Williams E‐medium without phenol red, supplemented with 2 mmol/L Glutamax and […] HEPES) before addition of hepatocyte suspension medium (250 µL/well) containing (30 or 50 µmol/L) of the test compounds or their diluent. Cells were then incubated for 7.5, 15, 30, 60 or 90 minutes at 37°C after which the medium was removed.
In other experiments, LC‐MS/MS analysis was performed to identify metabolites of test compounds that had been incubated with HepaRG cells. First, fifty micromolar standards of the test compounds were diluted 3000‐fold and analyzed using electrospray ionization mass spectrometry on a linear quadrupole ion trap (LTQ‐XL) from Thermo‐Fisher Scientific (San Jose). Full scan spectra were collected using both ionization polarities for confirmation of the intact molecular weight of each compounds based on the expected [M + H]^+ and [M−H]^− pseudo‐molecular ions observed using mass spectrometry. The diluted standards were then subjected to reversed‐phase partition chromatography on an Altima C18 column produced by HiChrom and distributed by VWR (Mississsauga, ON). The LC system was a Dionex Ultimate 3000. The mass spectrometer electrospray source was used at 40 µL/min with a nitrogen sheath gas of 15, a spray voltage of ±4 kV, a capillary voltage of ±35 V, a tube lens of ±175 V and a capillary temperature of 160°C. Samples that had been collected from HepaRG cultures were purified on C18 cartridges and eluted with CH3OH. For the first injection of extracted samples, the MS method consisted of a repeated loop of full scan (m/z 100‐800), product ion scan based on the intact mass determined from infusion of the standards and one product ion scan. […]
Figure 7 Metabolite identification using negative ion LC‐MS/MS in HepaRG cell culture. […] Right panels show the MS and MS/MS of the generated metabolites detected at 60 minutes. […]

HepaRG cells [2] = assay: Kinetics of test compound disappearance in HepaRG cell culture (HPLC); settings: 30 µmol/L, 37°C; mean (95% confidence interval), four experiments
Experimental: Undifferentiated cryopreserved HepaRG cells (BioPredic International) were seeded in 12 or 24 well plates at 1.1 × 10^5 and 0.55 × 10^5 cells per well, respectively. Cells were cultured for 14 days in Williams E‐medium supplemented with 1% penicillin‐streptomycin (10 000 U/mL), 10% fœtal bovine serum (FBS), 50 mg/L hydrocortisone hemisuccinate, 5 mg/L insulin and 2 mmol/L Glutamax, and the medium was renewed every 2‐3 days. After 14 days, the culture medium was replaced by the same formulation as above supplemented with 2% dimethyl sulfoxide (DMSO) to induce differentiation. Cells were considered differentiated and ready for experiments after 14 days of differentiation (28 days after seeding).
as §1
In experiments where the test compounds incubated with HepaRG cells were to be measured, the cell layer was washed with 250 µL of hepatocyte suspension medium which was then pooled with the first medium. The mixture was then added to 250 µL of ice cold CH3OH:CH3CN (1:1, vol:vol) containing 10 µmol/L of phenethyl 3,4,5‐trimethoxycinnamate as an internal standard. The resulting solution was frozen at −80°C for 2 hour to precipitate any dissolved proteins, centrifuged at 1800g and the supernatant transferred to vials and stored at −20°C until HPLC analysis.
Figure 5 Kinetics of test compound disappearance in HepaRG cell culture. (A) HepaRG cells were incubated in 250 µL of hepatocyte suspension medium containing 30 µmol/L of test compounds for the indicated times at 37°C. Supernatants were removed and added to 250 µL of ice cold CH3OH:CH3CN (1:1 vol:vol) containing 10 µmol/L of phenethyl 3,4,5‐trimethoxycinnamate as an internal standard. The cell layer was washed with 250 µL of hepatocyte suspension medium and added to the above mixture. Samples were centrifuged at 1900g and the supernatants were collected for HPLC analysis as described in the Methods. Values are means ± SEM. (B) Calculated half‐lives of the test compounds in HepaRG cell cultures. Values are means (95% confidence interval). All data are from four independent experiments TEXT PRINTED IN THE PICTURE: (B) CAPE (2): Half-life (Minutes): 4.70 (4.42 - 5.02) | (B) 7: Half-life (Minutes): 6.42 (5.72 -7.31) | (B) 5: Half-life (Minutes): 3.71 (3.67-3.74) | (B) 8: Half-life (Minutes): 6.48 (6.01-7.04) | (B) 9: Half-life (Minutes): 4.38 (4.23 - 4.55) | (B) 10: Half-life (Minutes): 11.32 (10.21- 12.71)

HepaRG cells [3] = assay: Residual inhibition of 5‐LO product biosynthesis in blood after incubation with HepaRG cells; settings: for Inhibitory activity against 5‐LO product biosynthesis after incubation with HepaRG cells: 50 µmol/L with HepaRG cells, after 60 minutes, medium added to blood, zymosan, LTB4
Experimental: as §1
In experiments where the inhibitory capacity of test compounds was to be determined after incubation with HepaRG cells, 125 µL of the hepatocyte suspension medium containing test compounds that had been collected at different time points from HepaRG cultures was added to 1 mL of heparinized blood. After a 5 minutes of preincubation, blood was then stimulated with opsonized zymosan and processed for HPLC analysis of 5‐LO metabolites as described above.
Figure 6 Stability of the test compounds for the inhibition of the biosynthesis of 5‐LO products following incubation with HepaRG cells. HepaRG cells were incubated with […] of hepatocyte suspension medium containing 50 µmol/L of test compounds for the indicated times at 37°C. Hepatocyte suspension medium (125 µL) was then removed and added to 1 mL of blood that was then incubated for 5 minutes and then stimulated with opsonized zymosan (4 mg/mL) for 30 minutes at 37°C. Blood was then centrifuged and plasma was collected and added to 1.2 mL of CH3OH:CH3CN (1:1). Samples were processed for analysis using RP‐HPLC for LTB4 quantification. Data are expressed as means ± SEM of at least three independent experiments. *Difference from time = 0, as determined using One‐way ANOVA with Dunnett's multiple comparison test (P < .05)

Row | SMILES | Metabolites formed in HepaRG cell culture (HepaRG cells [1]) | Half-life in HepaRG cell cultures (HepaRG cells [2]) | Inhibitory activity against 5‐LO product biosynthesis after incubation with HepaRG cells (HepaRG cells [3]) | Inhibitory activity retained after incubation in HepaRG cultures (HepaRG cells [3]; after up to one hour of incubation) [%]
1 | O=C(/C=C/c1ccc(O)c(O)c1)CCCc1ccccc1 [compound 7] | α,β‐unsaturated ketone reduction | 6.42 (5.72 -7.31) Minutes | lost all their inhibitory activity | –
2 | O=C(/C=C/c1cc(O)ccc1O)OCCc1ccccc1 [compound 5] | – | 3.71 (3.67-3.74) Minutes | lost all their inhibitory activity | –
3 | O=C(/C=C/c1cc(O)ccc1O)CCc1ccccc1 [compound 8] | α,β‐unsaturated ketone reduction | 6.48 (6.01-7.04) Minutes | lost all their inhibitory activity | –
4 | O=C(/C=C/c1ccc(O)c(O)c1)OCCc1ccccc1 [CAPE (2), caffeic acid phenethyl ester, reference compound] | – | 4.70 (4.42 - 5.02) Minutes | lost all their inhibitory activity | –
5 | COc1cc(/C=C/C(=O)CCc2ccccc2)cc(OC)c1O [compound 10, sinapic acid phenethyl ketone] | α,β‐unsaturated ketone reduction | 11.32 (10.21- 12.71) Minutes | maintained significant inhibition | 50

Source: paper PMC6743424, “Phenolic acid phenethylesters and their corresponding ketones: Inhibition of 5‐lipoxygenase and stability in human blood and HepaRG cells” (Pharmacology Research & Perspectives, 2019)
